The values that follow come from patent US20140155445A1, “Compounds and Methods for Treating Cancer and Diseases of the Central Nervous System” (Osta Biotechnologies Inc., priority 2007, published 2014).

“Also recorded” adds a separate entry of the source.

Assay [1] has as its system hHO-1 transfected primary rat astroglial cultures. The assay is described as follows: Protein carbonyl ELISA in hHO-1-transfected primary rat astroglia (whole-cell and mitochondrial compartments). It counts as cell-based. The method, then:
Cells were grown in Ham's F12 and high glucose DMEM (50:50 v/v) supplemented with 10 mM HEPES, 5% heat-inactivated horse serum, 5% heat-inactivated fetal bovine serum, and penicillin-streptomycin (50 U/mL and 50 μg/mL, respectively).
Upon reaching >90% confluence, 1×10^6 cells were transiently transfected with 4.0 μg of plasmid DNA-Lipofectamine 2000 complex using Lipofectamine 2000 method according to manufacturer instructions (Invitrogen). […] 12 μg of plasmid DNA and 16 μl of Lipofectamine 2000 reagent were diluted in 1.5 mL opti-MEM I reduced serum medium and incubated for 5 minutes at room temperature with gentle mixing. The two solutions were combined, incubated at room temperature for 20 minutes to promote formation of DNA-lipid complexes and administered to the cells. 2 mL opti-MEM I reduced serum medium was added to the flasks to ensure coverage of the monolayer by the transfection mixture. Following incubation for 6 hours at 37° C., the transfection mixture was replaced with 10 mL of complete media without antibiotics.
The cells were sonicated (Sonics & Materials, Danbury, Conn.) at a power level of 50 for 3×20 s in a cooled water bath. […] Whole-cell and mitochondrial preparations were assayed for protein carbonyls as described below.
Protein carbonyls were reacted with 2,4-dinitrophenylhydrazine (DNP) and the hydrazone adducts were detected with anti-DNP antisera. Quantification was achieved by comparison with oxidized BSA standards. Oxidized (carbonylated) BSA was prepared by reacting natural BSA (at 50 mg/mL in PBS) with hypochlorous acid (5 mM) for 1 h at 37° C., followed by overnight dialysis against PBS at 4° C. […] The pellet was resuspended in 2 mL of same buffer, sonicated on ice 2×15 s at 20 W and centrifuged for 20 min at 4° C. at 1,303×g. Protein concentration of supernatant was measured with the RC DC protein assay based on the Lowry protocol (Bio-Rad Laboratories, Hercules, Calif.). All samples were adjusted to 4.0 mg protein/mL. […] Five microliters aliquots of each reaction mixture were mixed with 1 mL PBS and 200 μL replicates were added per well to 96-well immunoplates and incubated overnight at 4° C. After washing with PBS, nonspecific binding sites were blocked with 0.1% Tween 20 in PBS. […] A 6-point standard curve of reduced and oxidized BSA was generated for each plate analyzed. Specific absorbance for each sample was calculated by subtracting basal absorbance of the DNP reagent from the total absorbance.
(In general: ELISA stands for enzyme-linked immunosorbent assay.)

For assay [2], the system named is Panc-1 human pancreatic carcinoma cells. The assay is described as follows: Human pancreatic cancer model Panc-1 in SCID mice. Type of assay: in vivo. Particulars: 30 and 60 mg/kg i.p. The source says:
Human pancreatic carcinoma cells (“Panc-1 cells”) were originally received from the ATCC (American Type Culture Collection).
Only those cells with >95% viability were used for in-vivo studies.
Once tumors reached a size of approximately 0.7 cm^3, they were removed under sterile condition, sliced into small pieces under a stereo-microscope. Each tissue piece was then reinoculated subcutaneously. Only pieces of approximately the same size and with no signs of necrosis were used.
At the end of the experiment, mice were sacrificed by cervical dislocation and full autopsies were conducted. A picture was taken of tumors from randomly selected mice. The tumors were then fixed in formalin for pathology examination.

Assay [3] deals with SKMEL 28-V+ cells (human melanoma). The assay is described as follows: Melanoma model SKMEL-V+ in SCID mice (combination study). It counts as in vivo. Particulars: QC-56 60 mg/kg/ip; Dacarbazine 55 mg/kg. The method, then:
SKMEL 28-V+ cells (human melanoma). These cells were originally from the ATCC and then engineered to overexpress VEGF. […] The cells were tested to be free of mycoplasma.
Control groups received the vehicle alone.

The subject of assay [4] is APPswe/PS1dE9 mice. The assay is described as follows: Behavioral studies (maze, fear conditioning) in APPswe/PS1dE9 mice. Type of assay: in vivo, mouse. The procedure: The experiments were performed at Pennington Biomedical Research Centre (PBRC) of Lousiana State University, Baton Rouge, Lousiana and were approved by the Institutional Animal Care and Use Committee (IACUC) of PBRC.
The APPswe/PS1dE9 mice were generated against a C57/BL6J background by breeding either +/+ males or females with −/− females or males, respectively.
Memantine (10 mg/kg) and both doses of QC-199 (15 mg/kg & 30 mg/kg) were prepared in batches and frozen for later use. Each compound was weighed and dissolved in injectable sterile saline solution. Memantine was prepared at a concentration of 1 mg/ml, the 15 mg/kg dose of QC-199 at a volume of 15 mg/10 ml, and the 30 mg/kg dose of QC-199 at a volume of 30 mg/10 ml. The compounds were prepared in this volume so that the mice could easily be injected based on their body weight, e.g., a 35 gram mouse was injected with 0.35 ml dosing solution.
Memantine and QC-199 dosing solutions were administered to mice via i.p. injections. The mice were weighed 3 times/week and were injected with a volume that matched their body weight. The mice were injected daily and the injection located was alternated each day to avoid potential complications from injection in the same location on a daily basis.
After reaching their respective treatment duration, the wild type and APP/PS1 double transgenic mice were run through the STM and fear conditioning. The STM consisted of one day of straight run training (running down an alley from the start box to the goal box). This phase was implemented to establish the contingency that moving forward would provide escape into the dark and dry goal box. The mice were required to reach a criterion of completing the straight run in 15 sec or less on 7 out of 9 trials over a maximum of 15 trials. […] The following day each mouse was administered 15 trials in the STM with approximately 7-10 min between each trial where they were placed into a holding cage with a towel. The latency to reach the goal box and the number of errors committed were the dependent measures of learning. However, in our experience, errors committed is much more indicative of learning and is reported for this project. Pictures of the straight run (A) and maze (B) are shown in FIG. 42, along with a schematic (C) of the maze indicating the correct path. The data from the maze was collapsed into blocks of 5 trials for data summary and presentation.
Med Associates Inc.'s MED-VFC-NIR-M NIR Video Fear Conditioning System for Mouse, Pavlovian fear conditioning was conducted after the STM. On Day 1 the mice were placed in Context 1 and given 5 tone+shock pairings. On day 2 the mice were placed back into Context 1 and their freezing response to being placed back into the original context where fear conditioning occurred was measured. Freezing is operationally defined as the cessation of all movement except that required for respiration. Freezing was measured over 10 minutes, and data were summarized in 1-min intervals. On day 3 the mice were placed into a novel context (Context 2) for 10 min. […] For the final 5 min, the tone paired with shock during fear conditioning was presented. Again, the data was summarized in 1-min intervals.
Maze data was analyzed by two-way ANOVAs to determine treatment group effects for both errors and run time after the data was collapsed into three 5 trial blocks. Planned comparisons of transgenic mice treated with saline with each of the drug treatments, memantine or QC-199 at 15 mg/kg/day and 30 mg/kg/day were conducted to evaluate group differences in the maze at each trial block and both tone and contextual fear conditioning tests. The critical a level was set at 0.05 for all statistical tests. The values in FIGS. 46A-46C represent the means±S.E.M. The data was analyzed using the SPSS statistical program version 11.0. […]

As to `Brc1ccc(CCC2(Cn3ccnc3)OCCO2)cc1.Cl` [QC-56, 1-((2-(2-(4-Bromophenyl)ethyl)-1,3-dioxolan-2-yl)methyl)-1H-imidazole hydrochloride], the “oxidative protein damage (protein carbonyls) accruing from hHO-1 transfection” value in assay [1] (6.5 μM) is reported as “significantly attenuated”. In addition, in assay [1] (transiently transfected rat astroglia, hydrochloride), the “dose dependence of attenuation of oxidative protein damage” value is recorded as “significant dose dependant attenuations; also recorded: in a dose dependent manner significantly decreased; also recorded: significant dose-dependant attenuations”. Also, the anti-tumor activity result in assay [2] is given as “not in the pancreatic cancer model Panc-1”. Also, in assay [3], the “inhibition of tumor growth compared to vehicle alone” value is on record as “approximately 42%” and the “tumor size on the day of sacrifice” value is 1.03±0.16 cm^3.
`Brc1ccc(CCCCn2ccnc2)cc1.Cl` [QC-199, 1-[4-(4-bromophenyl)butyl]-1H-imidazole hydrochloride]: the “effect on maze errors and contextual fear conditioning (summary)” value in assay [4] (Memantine, QC-199 15 mg/kg and 30 mg/kg, dtg mice) is reported as “positive effect”. Besides, the “maze errors vs saline-treated APP/PS1 mice” value in assay [4] (QC-199 30 mg/kg/day i.p., trend at Trial Block 3 (p=0.052)) is “did not exhibit improved performance at any of the Trial Blocks”. In assay [4] (QC-199 15 and 30 mg/kg/day, Memantine 10 mg/kg, Time Blocks 1-4), the “contextual fear conditioning (freezing) vs saline-treated APP/PS1 mice” value is recorded as “none reached significance”.
